Experimental data taken from PMC10174618, “Monoterpenoid aryl hydrocarbon receptor allosteric antagonists protect against ultraviolet skin damage in female mice” (Nature Communications, 2023).

Assays:
Experiment in all cases: biochemical
Set-up in all cases: KINOMEscan scanMAX active site-directed competition binding assay, percent of control, 468 kinases
Conditions in all cases: competition binding, percent of control
HIPK4 = HIPK4 (Homo sapiens, UniProt Q8NE63)
Outline: (§1)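 KINOMEscan active site-directed competition binding assay against 468 human kinases with 100 μM S-carvone. Binding expressed as % of control, with 35% of control as the inhibition threshold.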

PIK3CA(I800L) = PIK3CA(I800L) (Homo sapiens, UniProt P42336, I800L)
Outline: as §1

MINK = target: T1, MINK (Homo sapiens, UniProt Q8N4C8)
T1 construct: gene MINK1
Outline: as §1

ALK(L1196M) = ALK(L1196M) (Homo sapiens, UniProt Q9UM73, L1196M)
Outline: as §1

EPHA7 = EPHA7 (Homo sapiens, UniProt Q15375)
Outline: as §1

ERK2 = target: T2, ERK2 (Homo sapiens, UniProt P28482)
T2 construct: gene MAPK1
Outline: as §1

HCK = HCK (Homo sapiens, UniProt P08631)
Outline: as §1

SYK = SYK (Homo sapiens, UniProt P43405)
Outline: as §1

[1] = target: T3, ABL1(H396P)-phosphorylated (Homo sapiens, UniProt P00519, H396P)
T3 construct: phosphorylated
Outline: as §1

GRK1 = GRK1 (Homo sapiens, UniProt Q15835)
Outline: as §1

PIP5K2C = target: T4, PIP5K2C (Homo sapiens, UniProt Q8TBX8)
T4 construct: gene PIP4K2C
Outline: as §1

MKNK2 = MKNK2 (Homo sapiens, UniProt Q9HBH9)
Outline: as §1

BRSK2 = BRSK2 (Homo sapiens, UniProt Q8IWQ3)
Outline: as §1

DRAK2 = target: T5, DRAK2 (Homo sapiens, UniProt O94768)
T5 construct: gene STK17B
Outline: as §1

NEK1 = NEK1 (Homo sapiens, UniProt Q96PY6)
Outline: as §1

EGFR(L858R,T790M) = EGFR(L858R,T790M) (Homo sapiens, UniProt P00533, L858R/T790M)
Outline: as §1

EPHA2 = EPHA2 (Homo sapiens, UniProt P29317)
Outline: as §1

MEK6 = target: T6, MEK6 (Homo sapiens, UniProt P52564)
T6 construct: gene MAP2K6
Outline: as §1

[2] = target: T7, ABL1(Q252H)-phosphorylated (Homo sapiens, UniProt P00519, Q252H)
T7 construct: phosphorylated
Outline: as §1

TTK = TTK (Homo sapiens, UniProt P33981)
Outline: as §1

CDK4-cyclinD3 = target: T8, CDK4-cyclinD3 (Homo sapiens, UniProt P11802)
T8 construct: cyclinD3
Outline: as §1

Sequence of NEK1 (Q96PY6 whole entry): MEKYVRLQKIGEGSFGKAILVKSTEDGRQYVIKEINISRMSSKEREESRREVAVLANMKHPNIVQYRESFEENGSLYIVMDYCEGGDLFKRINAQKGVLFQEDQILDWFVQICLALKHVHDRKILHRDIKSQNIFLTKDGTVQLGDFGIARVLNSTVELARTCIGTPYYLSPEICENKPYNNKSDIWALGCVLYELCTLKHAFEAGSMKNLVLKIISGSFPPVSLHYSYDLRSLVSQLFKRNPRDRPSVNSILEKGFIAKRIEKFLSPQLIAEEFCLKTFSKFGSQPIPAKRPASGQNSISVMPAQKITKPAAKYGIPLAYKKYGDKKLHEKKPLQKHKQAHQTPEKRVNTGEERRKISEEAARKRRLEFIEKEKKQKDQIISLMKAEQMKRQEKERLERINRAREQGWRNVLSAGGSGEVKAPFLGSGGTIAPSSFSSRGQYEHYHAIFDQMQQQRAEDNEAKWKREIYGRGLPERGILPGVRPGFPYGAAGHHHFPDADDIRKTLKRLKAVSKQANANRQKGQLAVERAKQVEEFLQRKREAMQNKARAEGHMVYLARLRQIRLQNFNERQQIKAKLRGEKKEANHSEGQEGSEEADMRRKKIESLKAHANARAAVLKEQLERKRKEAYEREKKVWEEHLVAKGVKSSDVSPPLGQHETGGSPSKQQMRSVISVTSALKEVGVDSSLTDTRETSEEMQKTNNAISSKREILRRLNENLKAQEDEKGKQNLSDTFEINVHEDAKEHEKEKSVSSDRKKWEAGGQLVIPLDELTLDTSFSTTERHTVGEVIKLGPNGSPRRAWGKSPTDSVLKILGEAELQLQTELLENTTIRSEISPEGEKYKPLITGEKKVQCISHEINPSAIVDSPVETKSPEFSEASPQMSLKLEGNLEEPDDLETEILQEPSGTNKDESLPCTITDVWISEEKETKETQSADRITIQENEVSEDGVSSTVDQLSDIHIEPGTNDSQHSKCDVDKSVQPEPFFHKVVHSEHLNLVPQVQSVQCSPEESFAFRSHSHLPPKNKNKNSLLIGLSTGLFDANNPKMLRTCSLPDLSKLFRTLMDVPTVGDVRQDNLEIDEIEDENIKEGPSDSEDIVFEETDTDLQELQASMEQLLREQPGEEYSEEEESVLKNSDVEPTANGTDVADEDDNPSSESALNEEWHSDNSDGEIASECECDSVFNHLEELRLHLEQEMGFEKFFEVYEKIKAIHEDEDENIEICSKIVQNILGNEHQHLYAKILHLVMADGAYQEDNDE
T6 sequence (P52564 whole entry): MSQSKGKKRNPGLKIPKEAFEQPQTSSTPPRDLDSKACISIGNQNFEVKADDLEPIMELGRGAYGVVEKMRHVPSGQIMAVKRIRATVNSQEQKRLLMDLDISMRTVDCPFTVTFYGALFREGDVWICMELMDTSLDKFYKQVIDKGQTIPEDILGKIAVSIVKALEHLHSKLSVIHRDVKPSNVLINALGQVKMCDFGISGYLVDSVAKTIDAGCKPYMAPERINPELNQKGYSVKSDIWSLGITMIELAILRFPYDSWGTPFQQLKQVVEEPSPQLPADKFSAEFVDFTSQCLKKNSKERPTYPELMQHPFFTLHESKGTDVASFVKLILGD
Sequence of EPHA2 (P29317 whole entry): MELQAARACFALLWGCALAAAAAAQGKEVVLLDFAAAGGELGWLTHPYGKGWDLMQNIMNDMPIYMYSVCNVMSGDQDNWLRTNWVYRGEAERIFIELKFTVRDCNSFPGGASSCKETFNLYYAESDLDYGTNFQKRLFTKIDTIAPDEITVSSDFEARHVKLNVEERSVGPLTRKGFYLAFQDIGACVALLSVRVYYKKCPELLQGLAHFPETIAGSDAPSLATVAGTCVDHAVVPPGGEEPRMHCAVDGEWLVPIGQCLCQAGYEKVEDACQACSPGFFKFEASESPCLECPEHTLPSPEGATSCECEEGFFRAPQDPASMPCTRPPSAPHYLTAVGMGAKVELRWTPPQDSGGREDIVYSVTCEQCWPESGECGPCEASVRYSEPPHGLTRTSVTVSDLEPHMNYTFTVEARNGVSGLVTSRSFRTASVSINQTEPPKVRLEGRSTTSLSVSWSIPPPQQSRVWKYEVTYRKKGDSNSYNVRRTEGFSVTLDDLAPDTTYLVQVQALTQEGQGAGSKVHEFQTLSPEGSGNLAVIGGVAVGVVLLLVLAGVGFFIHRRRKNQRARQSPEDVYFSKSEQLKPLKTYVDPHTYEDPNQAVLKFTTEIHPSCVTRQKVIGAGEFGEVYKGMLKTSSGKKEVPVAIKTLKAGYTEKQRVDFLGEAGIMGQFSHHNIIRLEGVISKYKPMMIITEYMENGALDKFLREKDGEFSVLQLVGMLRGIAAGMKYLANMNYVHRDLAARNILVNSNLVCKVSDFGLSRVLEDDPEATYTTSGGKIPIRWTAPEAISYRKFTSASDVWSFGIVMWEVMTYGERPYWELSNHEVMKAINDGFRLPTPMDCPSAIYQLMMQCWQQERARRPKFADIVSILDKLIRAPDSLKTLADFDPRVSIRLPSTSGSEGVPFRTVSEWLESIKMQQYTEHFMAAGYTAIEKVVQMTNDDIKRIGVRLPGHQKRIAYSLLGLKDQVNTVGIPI
Sequence of GRK1 (Q15835 whole entry): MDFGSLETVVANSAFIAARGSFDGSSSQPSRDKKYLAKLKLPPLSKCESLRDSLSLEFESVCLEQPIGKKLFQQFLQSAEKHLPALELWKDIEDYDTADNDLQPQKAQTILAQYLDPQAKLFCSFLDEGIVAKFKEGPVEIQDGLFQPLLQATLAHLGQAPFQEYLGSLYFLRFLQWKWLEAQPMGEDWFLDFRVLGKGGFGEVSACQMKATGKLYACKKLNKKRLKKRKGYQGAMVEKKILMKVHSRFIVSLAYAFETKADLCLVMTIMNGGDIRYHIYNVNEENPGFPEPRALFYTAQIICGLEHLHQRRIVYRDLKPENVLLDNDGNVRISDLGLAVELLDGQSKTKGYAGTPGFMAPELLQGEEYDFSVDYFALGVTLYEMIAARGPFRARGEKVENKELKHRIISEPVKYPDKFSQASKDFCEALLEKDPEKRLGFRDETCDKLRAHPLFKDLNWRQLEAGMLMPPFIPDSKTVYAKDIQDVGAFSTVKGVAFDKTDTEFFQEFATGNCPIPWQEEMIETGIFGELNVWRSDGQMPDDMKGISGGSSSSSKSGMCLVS
T1 sequence (Q8N4C8 whole entry): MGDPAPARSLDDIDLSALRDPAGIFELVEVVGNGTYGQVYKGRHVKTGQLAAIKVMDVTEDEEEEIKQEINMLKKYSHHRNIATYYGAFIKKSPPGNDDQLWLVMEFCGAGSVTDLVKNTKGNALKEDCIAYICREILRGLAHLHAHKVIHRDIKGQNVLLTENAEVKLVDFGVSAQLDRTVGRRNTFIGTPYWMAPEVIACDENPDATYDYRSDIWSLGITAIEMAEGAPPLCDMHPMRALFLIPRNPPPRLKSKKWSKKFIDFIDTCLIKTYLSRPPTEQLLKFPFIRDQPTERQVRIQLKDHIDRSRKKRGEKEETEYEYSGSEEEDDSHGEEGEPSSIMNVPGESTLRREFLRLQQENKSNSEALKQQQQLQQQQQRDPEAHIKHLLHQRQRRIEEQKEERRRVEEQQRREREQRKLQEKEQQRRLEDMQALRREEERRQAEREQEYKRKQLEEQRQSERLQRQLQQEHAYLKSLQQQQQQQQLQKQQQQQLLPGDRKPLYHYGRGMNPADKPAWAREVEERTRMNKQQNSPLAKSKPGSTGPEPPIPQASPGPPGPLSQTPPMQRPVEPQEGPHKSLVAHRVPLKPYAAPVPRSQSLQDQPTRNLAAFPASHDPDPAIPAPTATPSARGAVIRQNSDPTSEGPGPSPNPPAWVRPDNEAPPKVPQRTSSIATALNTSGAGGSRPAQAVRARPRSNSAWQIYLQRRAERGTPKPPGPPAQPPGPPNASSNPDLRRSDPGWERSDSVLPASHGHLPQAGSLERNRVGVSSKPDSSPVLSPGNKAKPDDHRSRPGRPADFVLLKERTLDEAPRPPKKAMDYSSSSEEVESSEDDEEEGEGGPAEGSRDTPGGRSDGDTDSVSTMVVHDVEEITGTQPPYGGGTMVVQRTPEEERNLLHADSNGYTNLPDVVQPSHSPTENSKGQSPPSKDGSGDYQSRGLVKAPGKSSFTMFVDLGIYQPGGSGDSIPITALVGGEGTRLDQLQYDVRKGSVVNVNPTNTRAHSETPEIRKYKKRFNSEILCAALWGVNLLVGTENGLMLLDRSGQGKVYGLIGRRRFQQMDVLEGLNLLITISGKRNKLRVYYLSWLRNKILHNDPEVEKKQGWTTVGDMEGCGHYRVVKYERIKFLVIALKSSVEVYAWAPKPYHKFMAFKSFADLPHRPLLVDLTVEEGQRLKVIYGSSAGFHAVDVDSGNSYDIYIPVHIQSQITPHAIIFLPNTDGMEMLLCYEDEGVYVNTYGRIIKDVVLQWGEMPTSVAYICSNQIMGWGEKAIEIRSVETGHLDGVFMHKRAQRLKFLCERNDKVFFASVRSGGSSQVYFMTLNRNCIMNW
T2 sequence (P28482 whole entry): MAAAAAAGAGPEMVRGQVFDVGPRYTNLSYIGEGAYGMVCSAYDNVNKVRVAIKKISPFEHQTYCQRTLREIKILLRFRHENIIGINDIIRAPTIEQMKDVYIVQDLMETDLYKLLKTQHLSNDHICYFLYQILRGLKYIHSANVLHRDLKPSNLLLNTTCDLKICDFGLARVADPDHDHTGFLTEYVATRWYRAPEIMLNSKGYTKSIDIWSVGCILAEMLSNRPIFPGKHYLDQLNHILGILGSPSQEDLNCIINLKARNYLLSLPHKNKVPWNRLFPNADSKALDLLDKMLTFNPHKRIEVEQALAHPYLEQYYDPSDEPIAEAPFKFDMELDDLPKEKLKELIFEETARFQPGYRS

C=C(C)[C@H]1CC=C(C)C(=O)C1 [S-carvone]
remaining binding at 100 µM (HIPK4): 66% | remaining binding at 100 µM (PIK3CA(I800L)): 95% | remaining binding at 100 µM (MINK): 72% | remaining binding at 100 µM (ALK(L1196M)): 71% | remaining binding at 100 µM (EPHA7): 91% | remaining binding at 100 µM (ERK2): 76% | remaining binding at 100 µM (HCK): 76% | remaining binding at 100 µM (SYK): 75% | remaining binding at 100 µM [1]: 65% | remaining binding at 100 µM (GRK1): 74% | remaining binding at 100 µM (PIP5K2C): 88% | remaining binding at 100 µM (MKNK2): 82% | remaining binding at 100 µM (BRSK2): 79% | remaining binding at 100 µM (DRAK2): 98% | remaining binding at 100 µM (NEK1): 94% | remaining binding at 100 µM (EGFR(L858R,T790M)): 60% | remaining binding at 100 µM (EPHA2): 71% | remaining binding at 100 µM (MEK6): 82% | remaining binding at 100 µM [2]: 55% | remaining binding at 100 µM (TTK): 80% | remaining binding at 100 µM (CDK4-cyclinD3): 86%
